# Results published in patent US20250177405A1, “METHODS OF TREATING NEUROLOGICAL AND CARDIOVASCULAR CONDITIONS” (ASTROCYTE PHARMACEUTICALS, INC., priority 2021, published 2025).
# Where two headings read alike, the source gives them in different places.
# Assay: pre-efficacy pharmacokinetic study, intravenous bolus/constant rate infusion in tMCAO cynomolgus monkeys
# Type: in vivo, cynomolgus monkey
# Conditions: tMCAO (n = 1); for Kp at 22 h: cynomolgus monkey, CSF/plasma, intravenous, read-out: CSF/Plasma At 22-hour End of Dosing
# Description: Macaques received a bolus dose of vehicle (40% PEG400 in 0.9% saline) or I-1 into a saphenous vein 2 h after occlusion (2 h prior to restoration of MCA blood flow), followed immediately by a 22 h intravenous infusion. This dosing regimen was designed to rapidly achieve and maintain pre-determined plasma and cerebrospinal fluid (CSF) steady-state concentrations of I-1 based on its pharmacokinetics previously determined in näive and MCA occluded macaques (Tables A-C below).
# We then proceeded to our key preclinical stroke efficacy model in nonhuman primates. Pre-efficacy pharmacokinetic studies obtained plasma and CSF pharmacokinetic data. The I-1 CSF concentrations were combined with receptor affinity data to estimate receptor occupancy, and the combination of CSF concentrations and associated receptor occupancies were used to set dose regimens for the efficacy study.
# [1] = bolus 0.11 mg/kg / infusion 0.0582 mg/kg/hr
# [2] = bolus 1.7 mg/kg / infusion 0.9 mg/kg/hr
# [3] = bolus 5.2 mg/kg / infusion 2.76 mg/kg/hr
smiles,measurement,setting,value
CSc1nc(N)c2ncn([C@H]3C(O)C(O)[C@]4(CO)C[C@H]34)c2n1 (stereo in doubt) [Compound I-1],Kp at 22 h,[1],0.094
same,Kp at 22 h,[2],0.084
same,Kp at 22 h,[3],0.065
same,Actual Time-Averaged Steady-State [Plasma],[1],25 ng/mL
same,Predicted Steady-State [Plasma],[1],35 ng/mL
same,Actual Time-Averaged Steady-State [Plasma],[2],363 ng/mL
same,Predicted Steady-State [Plasma],[2],540 ng/mL
same,Actual Time-Averaged Steady-State [Plasma],[3],1812 ng/mL
same,Predicted Steady-State [Plasma],[3],1660 ng/mL
